Laboratory results taken from US8338471B2, “(2,5-dioxoimidazolidin-i-yl)-n-hydroxy-acetamides as metalloproteinase inhibitors” (Medivir AB, priority 2005, dated 2012).

Columns and labels:
Format in all cases: biochemical
[1] = target: T1, recombinant human MMP-12 (Homo sapiens, UniProt P39900); assay: MMP-12 enzyme assay (FRET substrate)
T1 construct: purchased R&D Systems; host or cells: mouse myeloma cell line NS-40 (so in the source)
Protocol: A typical MMP-12 enzyme assay employs recombinant human MMP-12 catalytic domain expressed and purified as described by Parkar A. A. et al, (2000), Protein Expression and Purification, 20:152. The purified enzyme can be used to monitor inhibitors of activity as follows: MMP-12 (50 ng/ml final concentration) is incubated for 60 minutes at room temperature with the synthetic substrate Mac-Pro-Cha-Gly-Nva-His-Ala-Dpa-NH2 in assay buffer (0.1M “Tris-HCl” (trade mark) buffer, pH 7.3 containing O.1M NaCl, 20 mM CaCl2, 0.020 mM ZnCl and 0.05% (w/v) “Brij 35” (trade mark) detergent) in the presence (5 concentrations) or absence of inhibitors. Activity is determined by measuring the fluorescence at λex 320 nm and λem 405 nm. Percent inhibition is calculated as follows: % Inhibition is equal to the (Fluorescenceplus inhibitor−Fluorescencebackground); divided by the (Fluorescenceminus inhibitor−Fluorescencebackground);
A favoured assay employs full length recombinant human MMP-12, amino acid residues 1 to 470 (Shapiro et al 1993, J Biol Chem 268:23824-23829) expressed in mouse myeloma cell line NS-40. The purified rhMMP-12 typically has the N terminal sequence L17PLNSSTSLE and an SDS-PAGE apparent molecular mass of approx. 56 kDa. Such proteins are available from R&D Systems, USA as a lyophilised 0.2 um filtered solution of 25 mM MES, 0.15M NaCl, 10 mMCaCl2, 0.15% Brij 35, pH 5.5. Auto-activation of the rhMMP-12 can be achieved by dilution to 0.05 mg/ml into TCNB buffer (50 mMTris, 10 mM CaCl2, 0.15M NaCl, 0.05% Brij 35, pH 7) and incubation at 37 degrees for 30 hours. A preferred buffer for MMP work is 50 mM Tris.HCl, pH 7.5, 200 mM Ca acetate.
Suitable FRET substrates include (7-methoxycoumarin-4-yl)acetyl-Pro-Leu-Gly-Leu-(3-(2,4-dinitrophenoyl)-L-2,3-diaminopropionyl)-Ala-Arg-NH2, commercially available from R&D Systems, USA. Typical specific activities are >500 picomol/min/ug, with rhMMP-12 measured with 10 uM of this substrate, 20 ng activated enzyme in 100 ul TCNB buffer at room temperature.
An alternative general MMP substrate is Dnp-PLGLWAD-R-NH2.
Category A indicates ≦50 nM inhibition, category B indicates 51-200 nM inhibition and category C indicates >200 nM: […]

[2] = target: T2, recombinant human MMP-3 (Homo sapiens, UniProt P08254); assay: MMP-3 enzyme assay (FRET substrate), selectivity versus MMP-12; conditions: fold difference in Ki for MMP-3 compared to MMP-12
T2 construct: purchased R&D Systems
T2 sequence (P08254 100-477): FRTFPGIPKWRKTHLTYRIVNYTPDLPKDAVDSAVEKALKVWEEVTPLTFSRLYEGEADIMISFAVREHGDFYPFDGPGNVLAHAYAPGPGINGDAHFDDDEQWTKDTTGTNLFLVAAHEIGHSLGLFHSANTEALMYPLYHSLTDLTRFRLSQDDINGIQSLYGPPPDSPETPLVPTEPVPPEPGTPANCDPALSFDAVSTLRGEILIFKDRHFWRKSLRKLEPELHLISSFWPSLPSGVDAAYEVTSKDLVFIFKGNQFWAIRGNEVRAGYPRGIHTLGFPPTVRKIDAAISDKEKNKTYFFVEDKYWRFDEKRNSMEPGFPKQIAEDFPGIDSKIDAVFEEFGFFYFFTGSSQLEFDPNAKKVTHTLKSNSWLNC
Protocol: The activity was measured by a continuous detection of increased fluorescence intensity during 12 min. The substrate consisted of a peptide with a fluorescent donor 7-methoxycoumarin (Mca) and a quenching acceptor 2,4-dinitrophenyl group (Dpa), typically Mca-Arg-Pro-Lys-Pro-Val-Glu-Nval-Trp-Arg-Lys(Dnp)-NH2 (R&D Systems, ES002). The cleavage site by MMP-3 is the peptide bond between Glu and Nval. The compounds were tested at a range of concentrations, the enzyme concentration (MMP-3) was fixed at 400 ng/ml and the substrate concentrations was 10 μM. The MMP-3 assay used employs recombinant human MMP-3 (supplied by R&D Systems) in an assay buffer of 50 mM Tris-HCl, 200 mM calcium acetate at pH=7.5. The MMP-3 enzyme was preactivated by dilution to 0.119 mg/ml into 1 mM APMA (p-aminophenylmercuric acetate) followed by incubation at 37° C. for 24 hours. The substrate was prepared at a 100 μM stock solution in DMSO and a 96-well polypropylene plate was used for the reaction mixtures. To each well of the plate was added assay buffer 90.0 μl, enzyme (MMP-3) 0.3 μl and inhibitor 1 μl. The reactions were started by addition of substrate, 10 μl/well, to a total volume of 100 μl/well. The total concentration of DMSO was not above 1%. The assay was performed at ambient temperature. Product fluorescence ([…]) was monitored with a Thermo Labsystems Fluoroskan Ascent plate reader. The Ki was determined by Prism Software.
(§1) The selectivity for MMP-12 over MMP-3 and TACE was evaluated for a representative selection of the compounds of the invention by comparing the Ki figures obtained when tested in the corresponding enzyme assays, such as those described above. The selectivity is presented as the fold difference in Ki for TACE and MMP-3 compared to MMP-12 and is calculated as the ratio Ki(TACE)/KiMMP-12 and Ki(MMP-3)/KiMMP-12 respectively.

[3] = target: T3, recombinant human TACE (Homo sapiens, UniProt P78536); assay: TACE enzyme assay (FRET substrate), selectivity versus MMP-12; conditions: fold difference in Ki for TACE compared to MMP-12
T3 construct: purchased R&D Systems
T3 sequence (P78536 215-824): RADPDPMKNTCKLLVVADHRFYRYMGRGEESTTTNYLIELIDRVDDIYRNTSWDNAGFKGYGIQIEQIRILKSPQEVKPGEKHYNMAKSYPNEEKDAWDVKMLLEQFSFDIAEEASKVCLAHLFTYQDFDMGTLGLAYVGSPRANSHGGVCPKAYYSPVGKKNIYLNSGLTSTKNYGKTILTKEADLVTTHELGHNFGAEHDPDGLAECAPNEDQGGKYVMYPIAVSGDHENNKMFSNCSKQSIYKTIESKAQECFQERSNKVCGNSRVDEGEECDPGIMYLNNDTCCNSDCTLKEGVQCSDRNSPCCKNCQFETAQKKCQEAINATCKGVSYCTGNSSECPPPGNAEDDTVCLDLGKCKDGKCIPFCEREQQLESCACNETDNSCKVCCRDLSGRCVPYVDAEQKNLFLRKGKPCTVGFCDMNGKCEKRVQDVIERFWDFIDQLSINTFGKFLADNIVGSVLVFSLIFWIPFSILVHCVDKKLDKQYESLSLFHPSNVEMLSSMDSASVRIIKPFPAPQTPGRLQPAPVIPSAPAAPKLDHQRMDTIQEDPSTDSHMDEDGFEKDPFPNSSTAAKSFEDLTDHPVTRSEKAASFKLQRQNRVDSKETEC
Protocol: The activity was measured by a continuous detection of increased fluorescence intensity during 12 min. The substrate consisted of a peptide with a fluorescent donor 7-methoxycoumarin (Mca) and a quenching acceptor 2,4-dinitrophenyl group (Dpa), typically Mca-P-L-A-Q-A-V-Dpa-R-S-S-S-R-NH2 (R&D Systems, ES003). The cleavage site by TACE is the peptide bond between Ala and Val. The compounds were tested at a range of concentrations while the enzyme and substrate concentrations were fixed. A typical TACE assay employs recombinant human TACE (supplied by R&D Systems) in an assay buffer (25 mM Tris-HCl, pH=9.0, 2.5 μM ZnCl2, 0.005% Brij 35). The enzyme concentration (TACE) used was 100 ng/ml, the substrate was prepared at a 100 μM stock solution in DMSO and a 96-well polypropylene plate was used for the reaction mixtures. To each well of the plate was added assay buffer 90.0 μl, enzyme (TACE) 0.09 μl and inhibitor 1 μl. The reactions were started by addition of substrate 10 μl/well, giving a substrate concentration of 10 μM and a total volume of 100 μl/well. The total concentration of DMSO was not above 1%. The assay was performed at ambient temperature. Product fluorescence ([…]) was monitored with a Thermo Labsystems Fluoroskan Ascent plate reader. The Ki was determined by Prism Software.
as §1

T1 sequence (P39900 106-470): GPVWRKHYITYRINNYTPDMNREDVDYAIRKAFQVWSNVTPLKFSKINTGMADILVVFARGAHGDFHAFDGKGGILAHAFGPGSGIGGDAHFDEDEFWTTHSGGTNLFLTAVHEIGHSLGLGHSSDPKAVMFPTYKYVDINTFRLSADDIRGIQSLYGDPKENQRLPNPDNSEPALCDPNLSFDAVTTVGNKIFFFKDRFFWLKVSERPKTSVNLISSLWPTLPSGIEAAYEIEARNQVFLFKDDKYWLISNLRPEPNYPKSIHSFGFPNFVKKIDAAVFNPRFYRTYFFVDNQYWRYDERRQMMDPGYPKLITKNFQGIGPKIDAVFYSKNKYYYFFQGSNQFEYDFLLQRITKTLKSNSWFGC

SMILES: CC(C)[C@H](C(=O)NO)N1C(=O)N[C@@H](COCc2ccc(C(F)(F)F)cc2)C1=O [Example 14, 2-[2,5-Dioxo-4-(4-trifluoromethyl-bezyloxymethyl)-imidazolidin-1-yl]-N-hydroxy-3-methyl-butyramide]
- Ki [1]: ≤ 50 nM
- Ki(MMP-3)/Ki(MMP-12) [2]: >500
- Ki(TACE)/Ki(MMP-12) [3]: >500
